These are literature values, as cited in patent US6447807B1, “Potassium (-)-hydroxycitric acid methods for pharmaceutical preparations for stable and controlled delivery” (priority 1999, dated 2002).

The conditions of the series: single large oral dose, or two divided oral doses totaling one fourth of it; animals fed a high-sugar diet.

Take `O=C(O)CC(O)(C(=O)O)C(O)C(=O)O` (single isomer, unassigned; (-)) [HCA, (−)-Hydroxycitric acid]: the “reduction in food consumption” value was at least 10%.
